{
  "source": "patent US20230111672A1",
  "about": "“COMPOSITIONS AND METHODS FOR PRODUCTION OF RECOMBINANT ADENO-ASSOCIATED VIRUS” (The Regents of the University of California, priority 2020, published 2023)",
  "format_in_all_cases": "cell-based, human",
  "key": {"HEK293 cells": {"tested_on": "HEK293 cells", "test": "rAAV titer by qPCR at 96 hrs post transfection, rAAV packaging in HEK293 cells", "conditions": "HEK293, thymidine added 24 hrs post transfection, harvest at 96 hrs", "experimental": "To assess the generality of the result, HEK293 cells were tested, using a different packaging method than that used for HEK293T cells. HEK293 cells were seeded at high concentration and incubated for 72 hrs to reach 100% confluency and then transfected with plasmids. Thymidine was added 24 hrs post transfection, and pellets were harvested at 96 hrs post transfection (FIG. 4).\nFIG. 5. HEK293 Cells were seeded at 1.0×10^5 cell/cm′ into 10 cm′ cell culture dish and transfected with the plasmids for rAAV packaging. Thymidine was treated at 24 hrs post transfection and cell pellets were harvested at 96 hrs post transfection. rAAV titer was measured by qPCR in the same method of FIG. 3. Error bars, mean±SD."}, "HEK 293T cells": {"tested_on": "HEK 293T cells", "test": "Cell cycle arrest by thymidine treatment, flow cytometry with DAPI or EdU incorporation", "conditions": "4 mM thymidine, 24 hrs post treatment", "experimental": "HEK 293T cells were treated with thymidine and analyzed using flow cytometry with DAPI (4′,6-diamidino-2-phenylindole) or EdU (5-ethynyl-2′-deoxyuridine) incorporation at 24 hrs post treatment.\nFIG. 1A-1B. Verification of cell cycle arrest by thymidine treatment. HEK293T cells were split into 10 cm′ cell culture dishes at 3.0e6 cells/plate. Thymidine stock was prepared with molecular biology grade distilled water at a concentration of 200 mM. The final concentration of thymidine in the culture medium was 4 mM. Two hrs before harvest, cells were incubated with EdU and were harvested for flow cytometry. DAPI staining and EdU assay were performed in accordance with the manufacturer's protocol."}, "HEK293T cells [1]": {"tested_on": "HEK293T cells", "test": "rAAV titer by qPCR at 72 hrs post transfection, rAAV packaging in HEK293T cells", "experimental": "(§1) The effect of thymidine treatment for rAAV packaging was assessed with the following description. rAAV manufacturing in HEK293T cells was achieved by transfecting cells with the transgene (ss-CAG-eGFP), the adenoviral helper plasmid pHelper, and rAAV2(Rep/Cap) helper plasmid in accordance with the standard protocol of PEI (polyethyleneimine) transfection (Ojala et al. 2018). Thymidine was added onto media without media change at 24 or 48 hrs post transfection and then cell pellets were harvested at 72 hrs post transfection (FIG. 2).\n(§2) The number of total cells was counted for the evaluation of cell growth prior to harvesting the cell pellet (FIG. 3A). […] Next, cell lysate samples were incubated with Benzonase as well as DNase to remove residual plasmid, and rAAV titer with or without thymidine treatment was determined by quantitative polymerase chain reaction (qPCR) with specific primers for the transgene, eGFP (FIG. 3B). rAAV titer was then normalized to total cell count to compare viral titers in vg/cell (viral genomes/cell) (FIG. 3C).\nFIG. 3A-3C. rAAV titer at 72 h with thymidine treatment. HEK293T cells were split into 10 cm′ cell culture dishes at 3.0×10^6 cells/plate and transfected with the plasmids for rAAV packaging. Cell pellets at 72 hrs post transfection were lysed by freezing and thawing and then incubated with Benzonase, followed by DNase. Subsequent Proteinase K digestion released AAV genome ssDNA from the AAV vector, which were subjected into qPCR for measuring rAAV genome copy number. Error bars, mean±SD. *P<0.05, (All statistics are the result of a student's two tailed t-test with paired variance)."}, "HEK293T cells [2]": {"tested_on": "HEK293T cells", "test": "rAAV titer following transfection with and without pHelper", "conditions": "thymidine added at 24 hrs post transfection, harvest at 72 hrs", "text": "Plasmids containing adenoviral genes that promote AAV replication and vector production, such as pHelper, have previously been essential for rAAV packaging. That is, AAV requires co-infection of helper virus or introduction of a DNA-damaging agent to complete life cycle (Yakobson, Koch, and Winocour 1987; Yalklnoglu et al. 1988), functions that in rAAV manufacturing are typically replaced by transfection with a plasmid such as pHelper. The present disclosure provides the use of thymidine as a replacement for pHelper. The positive control cells were transfected with the three plasmids (AAV vector, AAV helper, pHelper) while the negative control cells were transfected without pHelper. In some samples, thymidine was added at 24 hrs post transfection (FIG. 6).\nFIG. 6. HEK293T cells were transfected with plasmids in accordance with the indication and then thymidine was added at 24 hrs post transfection. All cells were harvested at 72 hrs post transfection and rAAV titer were determined. Error bars, mean±SD."}, "HEK293T cells [3]": {"tested_on": "HEK293T cells", "test": "Total cell count prior to harvesting the cell pellet, rAAV packaging cultures", "conditions": "counted prior to harvest at 72 hrs post transfection", "experimental": "as §1, §2\nFIG. 3A-3C. rAAV titer at 72 h with thymidine treatment. HEK293T cells were split into 10 cm′ cell culture dishes at 3.0×10^6 cells/plate and transfected with the plasmids for rAAV packaging. Cell pellets at 72 hrs post transfection were lysed by freezing and thawing and then incubated with Benzonase, followed by DNase. […]"}},
  "data": [
    {"smiles": "Cc1cn([C@H]2C[C@H](O)[C@@H](CO)O2)c(=O)[nH]c1=O", "note": "[thymidine]", "values": [
      {"measurement": "rAAV titer in vg/ml, fold higher than control cells", "setting": "HEK293 cells", "value": 1.75, "unit": "fold"},
      {"measurement": "EdU incorporation", "setting": "HEK 293T cells; EdU 2 hrs before harvest", "value": "no incorporation has occurred"},
      {"measurement": "Cell cycle phase of cell population, total DNA stained by DAPI", "setting": "HEK 293T cells; flow cytometry", "value": "predominantly in the S-phase section"},
      {"measurement": "rAAV titer in vg/ml, fold higher than control", "setting": "HEK293T cells [1]; thymidine treatment 24-72h post transfection, qPCR", "value": 2.77, "unit": "fold"},
      {"measurement": "rAAV titer, fold higher than that on control cells", "setting": "HEK293T cells [1]; thymidine treatment 24-72h post transfection, qPCR, basis not printed (second value after vg/ml)", "value": 5.38, "unit": "fold"},
      {"measurement": "rAAV titer in vg/ml, fold higher than control", "setting": "HEK293T cells [1]; thymidine treatment 48-72h post transfection, qPCR", "value": 2.19, "unit": "fold"},
      {"measurement": "rAAV titer in vg/cell, fold higher than control", "setting": "HEK293T cells [1]; thymidine treatment 48-72h post transfection, qPCR normalized to total cell count", "value": 3.52, "unit": "fold"},
      {"measurement": "rAAV packaging in the absence of pHelper", "setting": "HEK293T cells [2]", "value": "rAAV was packaged in the absence of pHelper only when the thymidine was added"},
      {"measurement": "Total cell count vs control group", "setting": "HEK293T cells [3]", "value": "lower cell count than the control group"}
    ]}
  ]
}
